The source of these data is US10730902B2, “1,1 ′-sulfanediyl-di-beta-D-galactopyranosides as inhibitors of galectins” (GALECTO BIOTECH AB, priority 2015, dated 2020).

Data set [1] deals with rabbit model of proliferative Vitreoretinopathy (PVR). Briefly: Study of ocular fibrosis in rabbits (retinal detachment, PVR model). Format: in vivo, New Zealand white rabbits. Conditions: for reduction of size and number of subretinal glial scars and number of dividing cells: in HEC formulation, rabbit retinal detachment; for number of subretinal scars per mm of retina / scar length per mm of retina: seven days after retinal detachment; for number of subretinal scars per mm of retina / scar length per mm of retina / Ki67 labeled Muller cells per mm of retina: 50 μL IVT in HEC gel, GB1A 0.05 mg/mL, GB1B 1.5 mg/mL; for number of subretinal scars per mm of retina: HEC control 1.26; for scar length per mm of retina: HEC control 175; for Ki67 labeled Muller cells per mm of retina: three days after retinal detachment, HEC control 9.57. The protocol: 30 New Zealand white rabbits were housed in metal cages that conformed to standards set forth in the Animal Welfare Act and the Guide for the Care and Use of Laboratory Animals. Space recommendations for animals were in accordance with PHS policy and the AWA.
The vehicle gel formulation was 1.65% (w/v) HEC in NaCl. The vehicle formulation was prepared by adding the appropriate amount of HEC to 75% of the required volume of 0.9% NaCl. The resulting formulation was stirred for 20 to 25 minutes after which it was QS'ed (adjusted) to the final volume with 0.9% NaCl and stirred for an additional 2 to 3 hours at room temperature. The gel formulation was then filtered with a 0.2 μm cellulose filter.
The test item formulations were prepared by adding the appropriate amount of GB1A or GB1B to 75% of the required volume of 0.9% NaCl. The resulting formulation was agitated for 20 to 25 minutes after which the pH of the solution was measured and adjusted, as necessary, to 6-6.5 with 0.01M NaOH. The required amount of HEC was added to the test item solution and the formulation was agitated for 20 to 25 minutes. The formulation was then QS'ed to the final volume with NaCl and agitated for an additional 2 to 3 hours at room temperature. The final gel formulation was filtered with a 0.2 μm cellulose filter.
Retinal detachments were created by infusing a dilute solution (0.25%) of Healon into the subretinal space of the right eyes in 30 New Zealand White rabbits. Fifty (50) μL of GB1A (0.05 mg/mL), GB1B (1.5 mg/mL), or vehicle (HEC) formulations were injected intravitreally immediately after the detachment surgery in the right eyes of all animals (n=5 for each vehicle/test item at each time-point). The left eyes served as naïve controls. Euthanasia was performed by administering “Euthasol” IV via an ear vein, on animals of Groups 1 to 3, 3 days after retinal detachment (n=15) to examine the effects on proliferation, and on animals of Groups 4 to 6, 7 days after retinal detachment (n=15) to examine the effects on scaring.
Following euthanasia, the retinas were fixed in 4% paraformaldehyde for 24 hours. Three retinal regions approximately 3 mm square were sampled from within each detached retina as well as from control retinas. The retinas were embedded in agarose and vibratomed at 100 microns in thickness. Sections were immunolabeled with antibodies to intermediate filament proteins (vimentin) and proliferating cells (Ki67). A marker for immune cells (Isolectin B4) and a nuclear stain (DAPI) was also used. All 4 probes were added to the same sections (i.e. quadruple labeling).
The sections were imaged using an Olympus FV1000 confocal microscope. Digital images were acquired and used to determine 1) the number and size of subretinal glial scars 2) the number of dividing cells and their cell type e.g. of immune or glial origin 3) whether microglia are “activated” and 4) if macrophages are present. Animals were weighed pre-dose and at euthanasia. All animals gained a small amount of weight as was expected.
Following euthanasia, the eyes were enucleated, the cornea and lens removed and the eyecups fixed in 4% paraformaldehyde in PBS for 24 hours. Three retinal regions approximately 3 mm^2 were dissected from within each detached retina and embedded in agarose for sectioning as described above. Following immunolabeling, the sections were mounted on glass slides and cover-slipped. Digital images were captured from along the length of each section collected from each of the 3 retinal regions using a FV1000 confocal microscope. Quantitation of scar length and number, as well as the number of dividing cells, was performed using the digital images viewed in “BioImage” (software available as a free download from UCSB's dept. of engineering). In addition, the presence of immune cells as described in the Experimental Design was noted and tabulated for each animal.

Another data set is described as follows: Solubility. Format: physicochemical.
The target in a further data set is galectin-1 (Homo sapiens (Human), UniProt P09382). The experiment in a line: Fluorescence anisotropy assay, galectin-1 affinity. Format: binding. Conditions: read-out: Gal-1 Kd. The protocol:
The affinity of Example 1-5 for galectins were determined by a fluorescence anisotropy assay where the compound was used as an inhibitor of the interaction between galectin and a fluorescein tagged saccharide probe as described Sörme, P., Kahl-Knutsson, B., Huflejt, M., Nilsson, U. J., and Leffler H. (2004) Fluorescence polarization as an analytical tool to evaluate galectin-ligand interactions. Anal. Biochem. 334: 36-47, (Sörme et al., 2004) and Monovalent interactions of Galectin-1 By Salomonsson, Emma; Larumbe, Amaia; Tejler, Johan; Tullberg, Erik; Rydberg, Hanna; Sundin, Anders; Khabut, Areej; Frejd, Torbjorn; Lobsanov, Yuri D.; Rini, James M.; et al, From Biochemistry (2010), 49(44), 9518-9532, (Salomonsson et al., 2010). […] 100 nM albumin was included as a carrier to prevent protein loss at such low concentration of galectin.
In general terms: Polarisation of emitted light reports the rotation of a fluorescent probe.

In a further data set the target is galectin-3 (Homo sapiens (Human), UniProt P17931). The experiment in a line: Fluorescence anisotropy assay, galectin-3 affinity. To be noted: read-out: Gal-3 Kd. Format: binding. The protocol: Anal. Biochem. 334: 36-47, (Sörme et al., 2004) and Monovalent interactions of Galectin-1 By Salomonsson, Emma; Larumbe, Amaia; Tejler, Johan; Tullberg, Erik; Rydberg, Hanna; Sundin, Anders; Khabut, Areej; Frejd, Torbjorn; Lobsanov, Yuri D.; Rini, James M.; et al, From Biochemistry (2010), 49(44), 9518-9532, (Salomonsson et al., 2010). […] 100 nM albumin was included as a carrier to prevent protein loss at such low concentration of galectin.
Chain of galectin-3 (P17931 whole entry): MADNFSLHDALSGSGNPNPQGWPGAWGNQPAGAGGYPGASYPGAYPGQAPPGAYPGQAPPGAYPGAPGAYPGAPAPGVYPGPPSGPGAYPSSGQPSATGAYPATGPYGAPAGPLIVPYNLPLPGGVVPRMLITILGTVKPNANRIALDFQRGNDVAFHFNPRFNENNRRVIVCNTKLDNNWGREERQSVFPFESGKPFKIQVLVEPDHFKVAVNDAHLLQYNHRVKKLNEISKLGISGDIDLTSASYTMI

The test system of a further data set is galectins. Conditions: all galectins; cited from earlier work.

Values after ≈ are worked out from the molar mass of the structure shown.

Chain of galectin-1 (P09382 whole entry): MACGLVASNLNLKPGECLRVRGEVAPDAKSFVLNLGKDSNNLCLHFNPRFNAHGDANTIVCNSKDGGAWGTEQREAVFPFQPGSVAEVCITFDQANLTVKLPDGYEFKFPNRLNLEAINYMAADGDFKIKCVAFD

With `OC[C@H]1O[C@@H](S[C@@H]2O[C@H](CO)[C@H](O)[C@H](n3cc(-c4ccc(F)cn4)nn3)[C@H]2O)[C@H](O)[C@@H](n2cc(-c3ccc(F)cn3)nn2)[C@H]1O` [GB1B, 3,3′-Dideoxy-3,3′-bis-[4-(5-fluoro-2-pyridinyl)-1H-1,2,3-triazol-1-yl]-1,1′-sulfanediyl-di-β-D-galactopyranoside], in data set [1], the “reduction of size and number of subretinal glial scars and number of dividing cells” value was “highly effective”; the “number of subretinal scars per mm of retina” value is 0.43 scars per mm of retina; the “scar length per mm of retina” value was 28.8 microns per mm of retina; the “Ki67 labeled Muller cells per mm of retina” value was 2.73 cells per mm of retina.
The solubility is the concentration that dissolves in the medium under given conditions. Lower therefore signals little dissolved substance. The compound `CC(C)c1cn(C2C(O)[C@@H](CO)OC(S[C@@H]3OC(CO)[C@H](O)[C@H](n4cc(-c5cc(F)c(F)c(F)c5)nn4)C3O)[C@@H]2O)nn1` (stereo partly drawn) [Example 5, 3,3′-Dideoxy-3-[4-(propan-2-yl)-1H-1,2,3-triazol-1-yl]-3′-[4-(3,4,5-trifluorophenyl)-1H-1,2,3-triazol-1-yl]-1,1′-sulfanediyl-di-β-D-galactopyranoside] registered a solubility in the data set “Solubility” greater than 10000 µg/mL.
The term Kd denotes the equilibrium constant for the complex coming apart. As to `CC(C)c1cn(C2C(O)[C@@H](CO)OC(S[C@@H]3OC(CO)[C@H](O)C(n4cc(-c5cc(F)c(F)c(F)c5)nn4)C3O)[C@@H]2O)nn1` (stereo partly drawn) [Example 5, 3,3′-Dideoxy-3-[4-(propan-2-yl)-1H-1,2,3-triazol-1-yl]-3′-[4-(3,4,5-trifluorophenyl)-1H-1,2,3-triazol-1-yl]-1,1′-sulfanediyl-di-β-D-galactopyranoside], on galectin-1, the Kd is 0.07 µM.
In the data set “Solubility”, `OCC1O[C@@H](SC2O[C@H](CO)C(O)C(n3cc(N4CCOCC4)nn3)[C@H]2O)C(O)[C@@H](n2cc(-c3cc(F)c(F)c(F)c3)nn2)[C@H]1O` (stereo partly drawn) [Example 1, 3,3′-Dideoxy-3-[4-(morpholin-4-yl)-1H-1,2,3-triazol-1-yl]-3′-[4-(3,4,5-trifluorophenyl)-1H-1,2,3-triazol-1-yl]-1,1′-sulfanediyl-di-β-D-galactopyranoside] returned a solubility greater than 10000 µg/mL.
For `OCC1O[C@@H](SC2O[C@H](CO)C(O)C(n3cc(N4CCOCC4)nn3)[C@H]2O)C(O)C(n2cc(-c3cc(F)c(F)c(F)c3)nn2)[C@H]1O` (stereo partly drawn) [Example 1, 3,3′-Dideoxy-3-[4-(morpholin-4-yl)-1H-1,2,3-triazol-1-yl]-3′-[4-(3,4,5-trifluorophenyl)-1H-1,2,3-triazol-1-yl]-1,1′-sulfanediyl-di-β-D-galactopyranoside], the Kd at galectin-1 was found to be 0.11 µM.
Still for that read-out and setting: the figure for `CN1CCN(c2cn(C3C(O)[C@@H](CO)OC(S[C@@H]4OC(CO)[C@H](O)C(n5cc(-c6cc(F)c(F)c(F)c6)nn5)C4O)[C@@H]3O)nn2)CC1` (stereo partly drawn) [Example 2, 3,3′-Dideoxy-3-[4-(4-methylpiperazin-1-yl)-1H-1,2,3-triazol-1-yl]-3′-[4-(3,4,5-trifluorophenyl)-1H-1,2,3-triazol-1-yl]-1,1′-sulfanediyl-di-β-D-galactopyranoside] is 0.035 µM.
The compound `CN1CCN(c2cn(C3C(O)[C@@H](CO)OC(S[C@@H]4OC(CO)[C@H](O)[C@H](n5cc(-c6cc(F)c(F)c(F)c6)nn5)C4O)[C@@H]3O)nn2)CC1` (stereo partly drawn) [Example 2, 3,3′-Dideoxy-3-[4-(4-methylpiperazin-1-yl)-1H-1,2,3-triazol-1-yl]-3′-[4-(3,4,5-trifluorophenyl)-1H-1,2,3-triazol-1-yl]-1,1′-sulfanediyl-di-β-D-galactopyranoside] came in with a solubility in the data set “Solubility” greater than 10000 µg/mL.
On the same count and under the same terms, the figure for `OCC1O[C@@H](SC2O[C@H](CO)C(O)C(n3cc(C4CCOCC4)nn3)[C@H]2O)C(O)[C@@H](n2cc(-c3cc(F)c(F)c(F)c3)nn2)[C@H]1O` (stereo partly drawn) [Example 4, 3,3′-Dideoxy-3-[4-(tetrahydropyran-4-yl)-1H-1,2,3-triazol-1-yl]-3′-[4-(3,4,5-trifluorophenyl)-1H-1,2,3-triazol-1-yl]-1,1′-sulfanediyl-di-β-D-galactopyranoside] is 8100 µg/mL (≈ 12 mM).
With `OCC1O[C@@H](SC2O[C@H](CO)C(O)C(n3cc(C4CCNCC4)nn3)[C@H]2O)C(O)[C@@H](n2cc(-c3cc(F)c(F)c(F)c3)nn2)[C@H]1O` (stereo partly drawn) [Example 3, 3,3′-Dideoxy-3-[4-(piperidin-4-yl)-1H-1,2,3-triazol-1-yl]-3′-[4-(3,4,5-trifluorophenyl)-1H-1,2,3-triazol-1-yl]-1,1′-sulfanediyl-di-β-D-galactopyranoside], the solubility in “Solubility” was greater than 10000 µg/mL. For the same compound, the Kd was determined as 0.005 µM on galectin-3 and 0.029 µM at galectin-1.
For `OC[C@H]1O[C@@H](S[C@@H]2O[C@H](CO)[C@H](O)[C@H](n3cc(-c4cccc(F)c4)nn3)[C@H]2O)[C@H](O)[C@@H](n2cc(-c3cccc(F)c3)nn2)[C@H]1O` [GB1A, 3,3′-Dideoxy-3,3′-bis-[4-(3-fluoro-phenyl)-1H-1,2,3-triazol-1-yl]-1,1′-sulfanediyl-di-β-D-galactopyranoside], in data set [1], the “reduction of size and number of subretinal glial scars and number of dividing cells” value is reported as “highly effective”; the “number of subretinal scars per mm of retina” value is recorded as 0.45 scars per mm of retina; the “scar length per mm of retina” value is given as 25.83 microns per mm of retina; the “Ki67 labeled Muller cells per mm of retina” value is recorded as 3.01 cells per mm of retina.
`OCC1O[C@@H](SC2O[C@H](CO)C(O)C(n3cc(C4CCOCC4)nn3)[C@H]2O)C(O)C(n2cc(-c3cc(F)c(F)c(F)c3)nn2)[C@H]1O` (stereo partly drawn) [Example 4, 3,3′-Dideoxy-3-[4-(tetrahydropyran-4-yl)-1H-1,2,3-triazol-1-yl]-3′-[4-(3,4,5-trifluorophenyl)-1H-1,2,3-triazol-1-yl]-1,1′-sulfanediyl-di-β-D-galactopyranoside]: the Kd on galectin-1 turned out to be 0.058 µM.
`O=C[C@H](O)[C@@H](O)[C@@H](O)[C@H](O)CO` [D-galactose]: the “affinity relative to lactose” value in the data set on galectins was 50-100 times lower.
In the case of `OC[C@H]1O[C@@H](O[C@H]2[C@H](O)[C@@H](O)C(O)O[C@@H]2CO)[C@H](O)[C@@H](O)[C@H]1O` (stereo partly drawn) [lactose], the Kd at galectins was 500 to 1000 µM.
